*1 amine or outer side, *2 acyl side, *3 side chain or, on linkers, in order; H or OH if unused. Where a SMILES comes first, the peptide text is derived from it. Bridges are numbered along the chain shown (N, C = ends). [ ]: non-standard residue; d: D form. The star is where a group is joined. NMeHph(3-OMe-4-CONHMe) = CNC(=O)c1ccc(CC[C@H](NC)C(=O)O)cc1OC; X18 = NN([C@@H](Cc1cccc(Cl)c1)C(=O)[*:2])[*:1]; NMePhe(3-Cl) = CN[C@@H](Cc1cccc(Cl)c1)C(=O)O; NMeF = CN[C@@H](Cc1ccccc1)C(=O)O; CH2CH(OH)CF3 = OC(C*)C(F)(F)F; CH2CONHtBu = CC(C)(C)NC(=O)C*; NMeL = CN[C@@H](CC(C)C)C(=O)O; Butyl(3R-OH) = C[C@@H](O)CC*; Butyl(3S-OH) = C[C@H](O)CC*; NMeV = CN[C@H](C(=O)O)C(C)C; NMeAbu = CC[C@H](NC)C(=O)O; NMeA = CN[C@@H](C)C(=O)O; Piperidide = C1CCN(*)CC1; dNMeA = CN[C@H](C)C(=O)O; CH2CONHMe = CNC(=O)C*; NBuGly = CCCCNCC(=O)O; NPrGly = CCCNCC(=O)O; Sar = CNCC(=O)O; tBu = CC(C)(C)*
Test: in vitro
Details: human
[1] = Caco-2, Caco-2 (membrane permeability)

CNC(=O)c1ccc(CC[C@H]2C(=O)N(C)[C@@H](CC(C)C)C(=O)N[C@@H]([C@@H](C)O)C(=O)N(C)CC(=O)N(C)[C@@H](CC(C)C)C(=O)N[C@H](C(=O)N3CCCCC3)CC(=O)N(C)[C@@H](C)C(=O)N[C@@H](CC(C)C)C(=O)N(C)[C@@H](CC(C)C)C(=O)N(C)[C@@H](Cc3ccccc3)C(=O)N[C@@H](CC(C)C)C(=O)N2C)cc1OC [AP230] ([NMeA]L[NMeL][NMeF]L[NMeHph(3-OMe-4-CONHMe)][NMeL]T[Sar][NMeL]D-Piperidide; lactam N-11)
Papp (Caco-2, Caco-2 (cm/sec)): 0.96 ×10⁻⁶ cm/s

CC[C@H]1C(=O)N(C)[C@@H](Cc2ccccc2)C(=O)N[C@@H](CC(C)C)C(=O)N(C)[C@@H](Cc2ccccc2)C(=O)N(C)[C@@H](C(C)C)C(=O)N[C@@H](COCC(O)C(F)(F)F)C(=O)N(C)CC(=O)N(C)[C@@H](CC(C)C)C(=O)N[C@H](C(=O)N2CCCCC2)CC(=O)N(C)[C@@H](C)C(=O)N[C@@H](CC(C)C)C(=O)N1C (stereo partly drawn) [Compound C14] ([NMeA]L[NMeAbu][NMeF]L[NMeF][NMeV]S(CH2CH(OH)CF3)[Sar][NMeL]D-Piperidide; lactam N-11)
Papp [1]: 2 ×10⁻⁶ cm/s

CCCCN1CC(=O)N(C)[C@@H](Cc2ccccc2)C(=O)N[C@@H]([C@@H](C)CC)C(=O)N(C)[C@@H](CC(C)C)C(=O)N[C@@H]([C@@H](C)O)C(=O)N(CCC)CC(=O)N(C)[C@@H](Cc2ccccc2)C(=O)N(C)[C@@H](CC(C)C)C(=O)N[C@@H](COCC(=O)NC)C(=O)N(C)[C@@H](CC(C)C)C(=O)N[C@H](C(=O)N2CCCCC2)CC1=O [Compound I06] ([NBuGly][NMeF]I[NMeL]T[NPrGly][NMeF][NMeL]S(CH2CONHMe)[NMeL]D-Piperidide; lactam N-11)
Papp [1]: 0.24 ×10⁻⁶ cm/s

CCCCN1CC(=O)N(C)[C@@H](Cc2ccccc2)C(=O)N(C)[C@@H](C(C)C)C(=O)N[C@@H](COC(C)(C)C)C(=O)N(C)[C@@H](CC(C)C)C(=O)N[C@H](C(=O)N2CCCCC2)CC(=O)N(C)CC(=O)N(N)[C@@H](Cc2cccc(Cl)c2)C(=O)N[C@@H](COCC[C@H](C)O)C(=O)N(C)[C@@H](CC(C)C)C(=O)N[C@@H]([C@@H](C)O)C1=O [AP105] ([Sar][X18]S(Butyl(3S-OH))[NMeL]T[NBuGly][NMeF][NMeV]S(tBu)[NMeL]D-Piperidide; lactam N-11)
Papp (Caco-2, Caco-2 (cm/sec)): 0.55 ×10⁻⁶ cm/s

CCCCN1CC(=O)N(C)[C@@H](Cc2cccc(Cl)c2)C(=O)N(C)[C@@H](CC(C)C)C(=O)N[C@@H](COCC[C@@H](C)O)C(=O)N(C)[C@@H](CC(C)C)C(=O)N[C@H](C(=O)N2CCCCC2)CC(=O)N(C)CC(=O)N(C)[C@@H](Cc2ccccc2)C(=O)N[C@@H](C(C)C)C(=O)N(C)[C@@H](CC(C)C)C(=O)N[C@@H]([C@@H](C)O)C1=O [AP114] ([Sar][NMeF]V[NMeL]T[NBuGly][NMePhe(3-Cl)][NMeL]S(Butyl(3R-OH))[NMeL]D-Piperidide; lactam N-11)
Papp (Caco-2, Caco-2 (cm/sec)): 0.28 ×10⁻⁶ cm/s

CCCCN1CC(=O)N(C)[C@@H](Cc2ccccc2)C(=O)N[C@@H]([C@@H](C)CC)C(=O)N(C)[C@@H](CC(C)C)C(=O)N[C@@H]([C@@H](C)O)C(=O)N(CCC)CC(=O)N(C)[C@@H](Cc2ccccc2)C(=O)N(C)[C@@H](CC(C)C)C(=O)N[C@@H](COCC(=O)NC(C)(C)C)C(=O)N(C)[C@@H](C)C(=O)N[C@H](C(=O)N2CCCCC2)CC1=O [AP18] ([NBuGly][NMeF]I[NMeL]T[NPrGly][NMeF][NMeL]S(CH2CONHtBu)[NMeA]D-Piperidide; lactam N-11)
Papp (Caco-2, Caco-2 (cm/sec)): 1 ×10⁻⁶ cm/s

CC(C)C[C@@H]1NC(=O)[C@H](Cc2ccccc2)N(C)C(=O)[C@H](CC(C)C)N(C)C(=O)[C@@H](C)N(C)C(=O)C[C@@H](C(=O)N2CCCCC2)NC(=O)[C@H](CC(C)C)N(C)C(=O)[C@H](Cc2ccccc2)N(C)C(=O)[C@H]([C@@H](C)O)NC(=O)[C@H](Cc2ccccc2)N(C)C1=O [pd223] ([dNMeA][NMeL][NMeF]L[NMeF]T[NMeF][NMeL]D-Piperidide; lactam N-9)
Papp (Caco-2, Caco-2 (cm/sec)): 1.1 ×10⁻⁶ cm/s

Source: patent publication US20230096766A1, “AMINO ACID HAVING FUNCTIONAL GROUP CAPABLE OF INTERMOLECULAR HYDROGEN BONDING, PEPTIDE COMPOUND CONTAINING SAME AND METHOD FOR PRODUCTION THEREOF” (Chugai Seiyaku Kabushiki Kaisha, priority 2018, published 2023)
